Literature values in PMC9851200, “Multiparameter phenotypic screening for endogenous TFEB and TFE3 translocation identifies novel chemical series modulating lysosome function” (Autophagy, 2022).

What was measured:
Design in all cases: method as in original PKIS2 published data
[1] = molecular target: T1, kinases (KINOMEscan panel) (Homo sapiens, UniProt Q96L34); conditions: kinase MARK4; Published KINOMEscan; ref original PKIS2 published data; cited from earlier work
T1 sequence (Q96L34 1-752): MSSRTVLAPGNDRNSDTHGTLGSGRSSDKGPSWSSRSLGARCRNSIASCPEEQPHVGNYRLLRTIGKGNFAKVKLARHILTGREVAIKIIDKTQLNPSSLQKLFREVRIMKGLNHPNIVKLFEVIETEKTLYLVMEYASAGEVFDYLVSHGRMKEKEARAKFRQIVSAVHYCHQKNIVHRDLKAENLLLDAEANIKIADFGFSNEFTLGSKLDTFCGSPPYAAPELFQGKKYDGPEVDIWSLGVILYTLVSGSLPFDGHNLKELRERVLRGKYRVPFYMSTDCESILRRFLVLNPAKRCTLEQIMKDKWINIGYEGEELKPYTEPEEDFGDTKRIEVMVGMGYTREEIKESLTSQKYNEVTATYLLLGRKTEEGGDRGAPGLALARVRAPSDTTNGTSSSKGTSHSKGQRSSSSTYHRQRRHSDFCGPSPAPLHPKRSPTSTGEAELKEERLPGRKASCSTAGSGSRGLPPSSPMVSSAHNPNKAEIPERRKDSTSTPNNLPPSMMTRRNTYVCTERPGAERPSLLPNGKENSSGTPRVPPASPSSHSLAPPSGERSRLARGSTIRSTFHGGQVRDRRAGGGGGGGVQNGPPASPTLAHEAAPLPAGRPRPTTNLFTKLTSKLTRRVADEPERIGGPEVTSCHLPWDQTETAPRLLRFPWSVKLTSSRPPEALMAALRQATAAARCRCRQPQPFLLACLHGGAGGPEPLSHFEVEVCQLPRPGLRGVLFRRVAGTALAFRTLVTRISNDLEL

[2] = molecular target: T2, kinases (KINOMEscan panel) (Homo sapiens, UniProt P36888); conditions: Published KINOMEscan, ref original PKIS2 published data, cited from earlier work
T2 sequence (P36888 27-993): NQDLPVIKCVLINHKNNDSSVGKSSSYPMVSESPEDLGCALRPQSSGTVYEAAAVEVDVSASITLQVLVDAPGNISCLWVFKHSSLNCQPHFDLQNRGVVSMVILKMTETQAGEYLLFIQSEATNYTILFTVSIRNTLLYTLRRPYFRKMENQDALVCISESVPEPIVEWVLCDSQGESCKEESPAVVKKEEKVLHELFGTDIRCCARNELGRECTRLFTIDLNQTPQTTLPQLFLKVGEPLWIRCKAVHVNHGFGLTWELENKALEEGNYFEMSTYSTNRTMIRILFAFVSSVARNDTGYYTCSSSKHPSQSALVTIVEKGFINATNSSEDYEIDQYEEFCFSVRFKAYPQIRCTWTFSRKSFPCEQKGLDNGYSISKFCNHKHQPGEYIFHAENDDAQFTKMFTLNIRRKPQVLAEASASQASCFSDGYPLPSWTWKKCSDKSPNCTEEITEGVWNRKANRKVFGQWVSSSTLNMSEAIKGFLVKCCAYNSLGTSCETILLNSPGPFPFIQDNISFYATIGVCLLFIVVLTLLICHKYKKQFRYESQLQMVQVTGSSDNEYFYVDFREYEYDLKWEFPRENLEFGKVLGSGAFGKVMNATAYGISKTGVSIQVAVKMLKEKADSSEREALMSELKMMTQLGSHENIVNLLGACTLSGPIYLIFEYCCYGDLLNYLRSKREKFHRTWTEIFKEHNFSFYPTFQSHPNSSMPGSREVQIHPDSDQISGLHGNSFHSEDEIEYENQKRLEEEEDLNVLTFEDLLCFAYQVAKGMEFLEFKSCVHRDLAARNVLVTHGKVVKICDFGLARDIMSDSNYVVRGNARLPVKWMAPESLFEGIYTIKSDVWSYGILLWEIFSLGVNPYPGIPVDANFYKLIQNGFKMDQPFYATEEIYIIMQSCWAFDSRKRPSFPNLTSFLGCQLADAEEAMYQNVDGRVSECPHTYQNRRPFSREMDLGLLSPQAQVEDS

[3] = molecular target: kinases (KINOMEscan panel) (Homo sapiens, UniProt P07332); conditions: kinase FES; Published KINOMEscan; ref original PKIS2 published data; cited from earlier work
Sequence of kinases (KINOMEscan panel) (Homo sapiens, UniProt P07332) (P07332 whole entry): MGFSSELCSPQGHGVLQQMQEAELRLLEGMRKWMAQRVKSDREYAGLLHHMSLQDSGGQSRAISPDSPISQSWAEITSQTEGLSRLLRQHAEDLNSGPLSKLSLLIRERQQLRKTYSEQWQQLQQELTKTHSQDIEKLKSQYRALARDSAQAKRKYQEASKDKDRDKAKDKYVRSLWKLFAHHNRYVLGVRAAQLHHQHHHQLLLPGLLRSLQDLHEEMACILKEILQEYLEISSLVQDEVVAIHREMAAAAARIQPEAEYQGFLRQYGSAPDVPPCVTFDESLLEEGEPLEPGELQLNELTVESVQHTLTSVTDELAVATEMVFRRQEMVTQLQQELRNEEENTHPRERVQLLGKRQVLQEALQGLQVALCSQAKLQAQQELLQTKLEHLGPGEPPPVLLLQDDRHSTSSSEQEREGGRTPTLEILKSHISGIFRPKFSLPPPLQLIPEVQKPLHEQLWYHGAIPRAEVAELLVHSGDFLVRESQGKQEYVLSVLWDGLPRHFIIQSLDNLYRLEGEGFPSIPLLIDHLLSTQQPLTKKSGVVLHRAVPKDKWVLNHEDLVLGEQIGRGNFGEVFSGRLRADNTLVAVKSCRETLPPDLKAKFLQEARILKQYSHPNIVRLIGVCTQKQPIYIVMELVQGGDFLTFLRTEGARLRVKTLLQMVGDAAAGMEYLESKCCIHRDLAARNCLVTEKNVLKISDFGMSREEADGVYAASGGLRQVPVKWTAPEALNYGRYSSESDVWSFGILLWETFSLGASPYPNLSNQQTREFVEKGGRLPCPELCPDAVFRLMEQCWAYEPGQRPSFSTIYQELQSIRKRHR

[4] = molecular target: kinases (KINOMEscan panel) (Homo sapiens, UniProt P50613); conditions: kinase CDK7; Published KINOMEscan; ref original PKIS2 published data; cited from earlier work
Sequence of kinases (KINOMEscan panel) (Homo sapiens, UniProt P50613) (P50613 whole entry): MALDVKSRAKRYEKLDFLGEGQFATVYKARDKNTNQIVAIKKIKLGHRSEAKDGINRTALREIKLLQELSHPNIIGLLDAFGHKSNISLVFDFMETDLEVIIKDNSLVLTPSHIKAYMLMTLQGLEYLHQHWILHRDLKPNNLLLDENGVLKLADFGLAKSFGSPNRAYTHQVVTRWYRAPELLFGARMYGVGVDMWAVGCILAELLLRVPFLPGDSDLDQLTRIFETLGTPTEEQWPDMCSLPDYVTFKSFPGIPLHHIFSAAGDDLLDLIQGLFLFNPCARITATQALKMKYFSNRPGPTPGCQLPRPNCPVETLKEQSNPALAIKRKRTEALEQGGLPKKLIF

[5] = molecular target: kinases (KINOMEscan panel) (Homo sapiens, UniProt P23458); conditions: JAK1(JH1domain-catalytic); Published KINOMEscan; ref original PKIS2 published data; cited from earlier work
Sequence of kinases (KINOMEscan panel) (Homo sapiens, UniProt P23458) (P23458 whole entry): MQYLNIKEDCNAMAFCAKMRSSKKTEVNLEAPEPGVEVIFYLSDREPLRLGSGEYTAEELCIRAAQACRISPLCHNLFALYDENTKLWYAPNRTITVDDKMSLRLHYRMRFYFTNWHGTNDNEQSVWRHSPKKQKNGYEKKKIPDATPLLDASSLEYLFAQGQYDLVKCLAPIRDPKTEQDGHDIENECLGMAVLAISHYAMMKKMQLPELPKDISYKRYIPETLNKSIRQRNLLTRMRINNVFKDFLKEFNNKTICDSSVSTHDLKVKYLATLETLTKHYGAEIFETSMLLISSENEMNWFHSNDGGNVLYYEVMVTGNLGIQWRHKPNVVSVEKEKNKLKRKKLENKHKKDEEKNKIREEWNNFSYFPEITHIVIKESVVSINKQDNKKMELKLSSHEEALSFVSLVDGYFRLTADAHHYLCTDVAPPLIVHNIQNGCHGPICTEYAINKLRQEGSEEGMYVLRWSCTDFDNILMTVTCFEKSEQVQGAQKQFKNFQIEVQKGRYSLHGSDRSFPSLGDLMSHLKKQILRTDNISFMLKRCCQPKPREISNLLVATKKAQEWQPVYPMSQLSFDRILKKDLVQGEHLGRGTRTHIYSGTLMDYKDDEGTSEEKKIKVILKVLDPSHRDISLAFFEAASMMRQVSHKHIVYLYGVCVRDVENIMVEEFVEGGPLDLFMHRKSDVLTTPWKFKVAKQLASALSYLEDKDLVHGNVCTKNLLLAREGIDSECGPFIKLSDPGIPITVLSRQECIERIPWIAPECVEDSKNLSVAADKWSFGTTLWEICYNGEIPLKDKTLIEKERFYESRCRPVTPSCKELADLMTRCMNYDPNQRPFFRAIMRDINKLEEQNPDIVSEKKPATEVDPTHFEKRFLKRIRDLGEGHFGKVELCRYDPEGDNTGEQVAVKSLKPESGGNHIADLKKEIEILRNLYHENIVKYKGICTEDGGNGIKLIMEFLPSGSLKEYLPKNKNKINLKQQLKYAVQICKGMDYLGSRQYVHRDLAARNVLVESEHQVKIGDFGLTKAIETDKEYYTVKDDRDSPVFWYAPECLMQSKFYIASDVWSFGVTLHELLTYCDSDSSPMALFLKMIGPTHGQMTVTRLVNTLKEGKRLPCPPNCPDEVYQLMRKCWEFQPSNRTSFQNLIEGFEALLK

[6] = molecular target: T3, kinases (KINOMEscan panel) (Homo sapiens, UniProt Q8NE63); conditions: kinase HIPK4; Published KINOMEscan; ref original PKIS2 published data; cited from earlier work
T3 sequence (Q8NE63 1-616): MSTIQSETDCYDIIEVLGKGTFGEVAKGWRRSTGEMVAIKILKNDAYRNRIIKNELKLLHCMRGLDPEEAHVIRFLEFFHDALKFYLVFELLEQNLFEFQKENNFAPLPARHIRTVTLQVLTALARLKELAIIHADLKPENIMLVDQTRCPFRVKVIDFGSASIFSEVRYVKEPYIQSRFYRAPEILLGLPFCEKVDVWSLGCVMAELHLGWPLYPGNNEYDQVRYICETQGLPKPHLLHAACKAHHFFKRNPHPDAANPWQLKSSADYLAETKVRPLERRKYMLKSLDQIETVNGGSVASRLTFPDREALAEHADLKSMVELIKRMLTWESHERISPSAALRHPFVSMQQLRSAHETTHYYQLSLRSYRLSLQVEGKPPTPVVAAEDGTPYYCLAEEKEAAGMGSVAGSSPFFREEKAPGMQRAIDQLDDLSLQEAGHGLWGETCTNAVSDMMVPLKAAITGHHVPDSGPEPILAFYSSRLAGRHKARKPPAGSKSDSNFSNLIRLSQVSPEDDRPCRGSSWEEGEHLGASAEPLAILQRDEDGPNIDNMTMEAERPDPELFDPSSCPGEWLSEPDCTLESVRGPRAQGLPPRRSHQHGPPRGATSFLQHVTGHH

[7] = molecular target: kinases (KINOMEscan panel) (Homo sapiens, UniProt Q9UM73); conditions: kinase ALK; Published KINOMEscan; ref original PKIS2 published data; cited from earlier work
Sequence of kinases (KINOMEscan panel) (Homo sapiens, UniProt Q9UM73) (Q9UM73 19-1620): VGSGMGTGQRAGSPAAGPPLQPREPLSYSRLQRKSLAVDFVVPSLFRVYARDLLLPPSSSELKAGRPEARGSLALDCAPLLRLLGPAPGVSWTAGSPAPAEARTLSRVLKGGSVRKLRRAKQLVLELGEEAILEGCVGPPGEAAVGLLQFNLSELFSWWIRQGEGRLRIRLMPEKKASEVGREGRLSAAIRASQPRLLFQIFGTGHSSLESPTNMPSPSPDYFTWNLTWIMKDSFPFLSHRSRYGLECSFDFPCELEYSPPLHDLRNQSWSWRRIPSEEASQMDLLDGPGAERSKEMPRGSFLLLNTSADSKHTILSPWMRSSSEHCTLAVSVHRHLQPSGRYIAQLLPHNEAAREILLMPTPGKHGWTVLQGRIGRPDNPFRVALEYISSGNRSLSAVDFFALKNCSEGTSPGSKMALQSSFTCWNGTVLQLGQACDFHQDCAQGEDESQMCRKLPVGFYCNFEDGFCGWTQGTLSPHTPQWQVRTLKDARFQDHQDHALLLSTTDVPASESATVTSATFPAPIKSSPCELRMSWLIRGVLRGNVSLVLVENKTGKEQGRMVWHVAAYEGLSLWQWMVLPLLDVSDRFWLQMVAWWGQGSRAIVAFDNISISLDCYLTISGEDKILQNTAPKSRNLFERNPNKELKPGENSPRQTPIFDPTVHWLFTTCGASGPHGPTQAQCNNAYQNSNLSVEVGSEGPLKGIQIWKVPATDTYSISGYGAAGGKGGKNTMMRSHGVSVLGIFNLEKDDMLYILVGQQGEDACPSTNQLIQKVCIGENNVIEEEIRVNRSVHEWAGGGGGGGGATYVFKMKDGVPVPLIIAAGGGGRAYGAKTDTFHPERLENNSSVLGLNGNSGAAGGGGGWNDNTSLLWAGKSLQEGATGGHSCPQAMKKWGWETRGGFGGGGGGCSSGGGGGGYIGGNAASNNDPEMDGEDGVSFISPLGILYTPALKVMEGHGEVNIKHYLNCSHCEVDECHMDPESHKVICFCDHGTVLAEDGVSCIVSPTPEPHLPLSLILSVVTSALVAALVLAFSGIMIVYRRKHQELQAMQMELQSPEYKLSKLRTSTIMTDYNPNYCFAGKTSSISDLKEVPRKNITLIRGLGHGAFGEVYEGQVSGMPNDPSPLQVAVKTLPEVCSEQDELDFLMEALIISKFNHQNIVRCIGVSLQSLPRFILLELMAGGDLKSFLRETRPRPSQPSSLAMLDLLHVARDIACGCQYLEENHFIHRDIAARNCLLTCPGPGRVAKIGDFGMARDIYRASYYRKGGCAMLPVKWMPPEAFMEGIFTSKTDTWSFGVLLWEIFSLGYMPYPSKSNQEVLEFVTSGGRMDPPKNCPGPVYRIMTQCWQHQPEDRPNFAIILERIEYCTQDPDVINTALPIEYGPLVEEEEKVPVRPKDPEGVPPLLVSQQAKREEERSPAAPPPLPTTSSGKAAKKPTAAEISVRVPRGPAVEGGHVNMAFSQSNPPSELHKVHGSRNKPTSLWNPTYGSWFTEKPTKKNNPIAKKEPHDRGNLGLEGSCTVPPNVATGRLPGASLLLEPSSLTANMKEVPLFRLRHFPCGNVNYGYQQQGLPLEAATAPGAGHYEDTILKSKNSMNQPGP

SMILES: Cc1cccc(-c2nc(Nc3ccncc3)c3ccccc3n2)n1 [NK215]
- KINOMEscan MARK4 [1]: 25
- KINOMEscan FLT3 ([2]; FLT3): 0
- KINOMEscan FLT3-autoinhibited ([2]; kinase FLT3-autoinhibited): 0
- KINOMEscan FES [3]: 13
- KINOMEscan CDK7 [4]: 0
- KINOMEscan JAK1(JH1domain-catalytic) [5]: 0
- KINOMEscan HIPK4 [6]: 19
- KINOMEscan ALK [7]: 0
